Source: PMC8584173, “The Cytotoxic Effect of Copper (II) Complexes with Halogenated 1,3-Disubstituted Arylthioureas on Cancer and Bacterial Cells” (International Journal of Molecular Sciences, 2021)
Values joined by “and” are separate entries in the source; they are usually repeats but may differ in a detail not shown here. Identical values can stand only once.

What was measured:
[1] = test system: Peroxiredoxin-6 (PRDX6_HUMAN); assay: LC–MS proteome analysis, PRDX6; assay type: cell-based, Homo sapiens; settings: IC50 concentration, % of control
Method: (§1) Enzymes involved in oxidoreductive potential were analyzed in the cell lysates obtained after treatment cells with selected conjugates for 24 h. Cells were washed with phosphate-buffered saline (PBS) and harvested, then centrifuged at 1000× g for 10 min. Then, lysis buffer (containing protease inhibitor, 1% RIPA Lysis and Extraction Buffer (ThermoFisher)) and cold PBS were added, and samples were sonicated three times in ice bath. Next, the cell lysates were centrifuged at 14,000× g at 4 °C for 15 min, and then supernatants were stored at […] before use. Protein concentration was measured by the Bradford method.
(§2) Normalized protein concentrations (5 µg) from cell lysate were precipitated by ice cold (–20 °C) acetonitrile (ACN, Merck, in ratio 1:4). Then, samples were centrifuged (–9 °C, 30 min., 18,000× g), the supernatant was discarded and ACN excess was evaporated using a vacuum centrifuge (5 min., room temp.). Protein pellet was dissolved in 40 mM ammonium bicarbonate. An amount of 500 mM dithiothreitol (DTT, with final concentration 20 mM) and 1 M iodoacetamide (IAA, with final concentration 40 mM) were used for reduction and alkylation processes. After 16 h of incubation in 37 °C with Trypsin Gold (Promega), digested protein samples were diluted with 0.1% formic acid (ThermoFisher) and centrifuged (+2 °C, 30 min, 18,000× g).
(§3) LC–MS analysis was carried out with the use of nanoUHPLC (nanoElute, Bruker) coupled by CaptiveSpray (Bruker) to ESI-Q-TOF mass spectrometer (Compact, Bruker). Two-column separation method was used, i.e., pre-column (300 µm × 5 mm, C18 PepMap 100, 5 µm, 100Å, Thermo Scientific) and Aurora separation column with CSI fitting (75 µm × 250 mm, C18 1.6 µm) in gradient 2% B to 35% B in 90 min with the 300 nL/min flow rate. Mobile phases (A) 0.1% formic acid in water and (B) 0.1% formic acid in ACN were used.
(§4) Sample ionizations were performed at a gas flow of 3.0 L/min, temperature of 150 °C and voltage of the capillary at 1600 V. The quadrupole energy was fixed to 5.0 eV and collision chamber energy 7.0 eV, with an ion transfer time of 90 µs. The ions were analyzed in the positive polarity mode in the range 150–2200 m/z, with the acquisition frequency of the 1 Hz spectrum, as well as with the autoMS/MS system.
(§5) The collected spectra were analyzed and calibrated using DataAnalysis software (Bruker) and then identified in ProteinScape (Bruker) by the MASCOT server. Protein identification was conducted using the online SwissProt and NCBIprot databases, and their references and biological significance were identified using Reactome.org, String.org and KEGG.

[2] = test system: detoxifying and ROS-scavenging enzymes (GST, GR, SOD, PRDX); assay: LC–MS proteome analysis, all 12 tested enzymes (text summaries); assay type: cell-based, human; settings: PC3, IC50 concentration, span over enzymes
Method: as §1, §2
LC–MS analysis was carried out with the use of nanoUHPLC (nanoElute, Bruker) coupled by CaptiveSpray (Bruker) to ESI-Q-TOF mass spectrometer (Compact, Bruker). […]
as §4
The collected spectra were analyzed and calibrated using DataAnalysis software (Bruker) and then identified in ProteinScape (Bruker) by the MASCOT server. […]

[3] = test system: Glutathione S-transferase omega-1 (GSTO1_HUMAN); assay: LC–MS proteome analysis, GSTO1; assay type: cell-based, Homo sapiens; settings: IC50 concentration, % of control
Method: as §1, §2, §3, §4, §5

[4] = test system: Glutathione reductase, mitochondrial (GSHR_HUMAN); assay: LC–MS proteome analysis, GSHR; assay type: cell-based, Homo sapiens; settings: IC50 concentration, % of control
Method: as §1, §2, §3, §4, §5

[5] = test system: hospital S. aureus (MRSA); assay: MIC, hospital S. aureus; assay type: cell-based, Staphylococcus aureus; settings: for times stronger / more potent than ciprofloxacin: clinical S. aureus rods (six for 1–4, 7, 8)
Method: (§6) The antimicrobial activity of the compounds was tested on Gram-positive bacteria (Staphylococcus aureus NCTC 4163, Staphylococcus aureus ATCC 25923, Staphylococcus aureus ATCC 6538, Staphylococcus aureus ATCC 29213, Staphylococcus epidermidis ATCC 12228, Staphylococcus epidermidis ATCC 35984), Gram-negative rods (Escherichia coli ATCC 10538, Escherichia coli ATCC 25922, Pseudomonas aeruginosa ATCC 15442, Pseudomonas aeruginosa ATCC 27863) and yeasts (Candida albicans ATCC 10231, Candida albicans ATCC 90028, Candida parapsilosis ATCC 22019). Hospital methicillin-resistant strains of Staphylococcus aureus and Staphylococcus epidermidis were obtained from the collection of the Department of Pharmaceutical Microbiology, Medical University of Warsaw, Poland.
(§7) Antifungal activities were assessed using Mueller–Hinton agar + 2% glucose and 0.5 µg/mL methylene blue dye medium. Sterile filter paper discs (9 mm diameter, Whatman Number 3 chromatography paper) were dripped with tested compound solutions (in dimethylsulfoxide, DMSO) to load 400 μg of a given compound per disc. Dry discs were placed on the surface of appropriate agar medium. The results (diameter of the growth inhibition zone) were read after 18 h of incubation at 35 °C. Minimal inhibitory concentration (MIC) was tested by the twofold serial microdilution method (in 96-well microtiter plates) using Mueller–Hinton broth medium (Beckton Dickinson) for bacteria or RPMI-1640 medium for Candida species, according to CLSI guidelines. The stock solution of tested agent was prepared in DMSO and diluted in sterile water. […] The final inoculum of all studied microorganisms was 10^5 CFU/ mL^−1 (colony forming units per ml). Minimal inhibitory concentrations (the lowest concentration of a tested agent that prevents visible growth of a microorganism) were read after 18 h (bacteria) or 24 h (yeasts) of incubation at 35 °C.

Candida species = assay: MIC, Candida species; assay type: cell-based; settings: studied Candida species
Method: as §6, §7

[6] = test system: Peroxiredoxin-1 (PRDX1_HUMAN); assay: LC–MS proteome analysis, PRDX1; assay type: cell-based, Homo sapiens; settings: IC50 concentration, % of control
Method: as §1, §2, §3, §4, §5

[7] = test system: Peroxiredoxin-5, mitochondrial (PRDX5_HUMAN); assay: LC–MS proteome analysis, PRDX5; assay type: cell-based, Homo sapiens; settings: IC50 concentration, % of control
Method: as §1, §2, §3, §4, §5

[8] = test system: Peroxiredoxin-2 (PRDX2_HUMAN); assay: LC–MS proteome analysis, PRDX2; assay type: cell-based, Homo sapiens; settings: IC50 concentration, % of control
Method: as §1, §2, §3, §4, §5

[9] = test system: Superoxide dismutase [Cu-Zn] (SODC_HUMAN); assay: LC–MS proteome analysis, SODC; assay type: cell-based, Homo sapiens; settings: IC50 concentration, % of control
Method: as §1, §2, §3, §4, §5

[10] = test system: Glutathione S-transferase P (GSTP1_HUMAN); assay: LC–MS proteome analysis, GSTP1; assay type: cell-based, Homo sapiens; settings: IC50 concentration, % of control
Method: as §1, §2, §3, §4, §5

standard staphylococci = assay: MIC, standard staphylococci; assay type: cell-based, Staphylococcus; settings: standard staphylococci / S. aureus isolates
Method: as §6, §7

[11] = test system: clinical methicillin-resistant strains of S. aureus (MRSA) and S. epidermidis (MRSE); assay: MIC, clinical strains; assay type: cell-based, Staphylococcus
Method: as §6, §7

Row | SMILES | Protein Intensity, % (PRDX6) ([1]; PC3, 24 h) [%] | Protein Intensity, % (PRDX6) ([1]; SW480, 24 h) [%] | Protein Intensity, % (PRDX6) ([1]; SW620, 24 h) [%] | reduction of intensity of the 12 tested enzymes [2] | Protein Intensity, % (GSTO1) ([3]; PC3, 24 h) [%] | Protein Intensity, % (GSTO1) ([3]; SW480, 24 h) [%] | Protein Intensity, % (GSTO1) ([3]; SW620, 24 h) [%] | Protein Intensity, % (GSHR) ([4]; PC3, 24 h) [%] | Protein Intensity, % (GSHR) ([4]; SW480, 24 h) [%] | Protein Intensity, % (GSHR) ([4]; SW620, 24 h) [%] | growth inhibitory dose (Candida species) [µg/mL] | Protein Intensity, % (PRDX1) ([6]; PC3, 24 h) [%] | Protein Intensity, % (PRDX1) ([6]; SW480, 24 h) [%] | Protein Intensity, % (PRDX1) ([6]; SW620, 24 h) [%] | Protein Intensity, % (PRDX5) ([7]; PC3, 24 h) [%] | Protein Intensity, % (PRDX5) ([7]; SW480, 24 h) [%] | Protein Intensity, % (PRDX5) ([7]; SW620, 24 h) [%] | Protein Intensity, % (PRDX2) ([8]; PC3, 24 h) [%] | Protein Intensity, % (PRDX2) ([8]; SW480, 24 h) [%] | Protein Intensity, % (PRDX2) ([8]; SW620, 24 h) [%] | further results
1 | O=[N+]([O-])c1cc([N+]2=C(Nc3ccc(Br)cc3)[S][Cu-2]23[S]C(Nc2ccc(Br)cc2)=[N+]3c2ccc(Cl)c([N+](=O)[O-])c2)ccc1Cl [Compound 3, Copper (II) complex with 1-(4-bromophenyl)-3-(4-chloro-3-nitrophenyl)thiourea] | 71.1 | 81.3 | 66.4 | 29.4–69.1% | 64.0 | 66.0 | 77.0 | 58.9 | 63.1 | 79.2 | 64 | 47.8 | 88.5 | 89.0 | 40.9 | 84.8 | 82.4 | 47.3 | 93.7 | 71.6 | MIC ([5]; all evaluated hospital S. aureus): 4 µg/mL; Protein Intensity, % (SODC) ([9]; PC3, 24 h): 30.9%; Protein Intensity, % (SODC) ([9]; SW480, 24 h): 75.3%; Protein Intensity, % (SODC) ([9]; SW620, 24 h): 78.2%; Protein Intensity, % (GSTP1) ([10]; PC3, 24 h): 51.1%; Protein Intensity, % (GSTP1) ([10]; SW480, 24 h): 75.9%; Protein Intensity, % (GSTP1) ([10]; SW620, 24 h): 64.5%
2 | O=[N+]([O-])c1cc([N+]2=C(Nc3ccc(Cl)c(Cl)c3)[S][Cu-2]23[S]C(Nc2ccc(Cl)c(Cl)c2)=[N+]3c2ccc(Cl)c([N+](=O)[O-])c2)ccc1Cl [Compound 5, Copper (II) complex with 1-(4-chloro-3-nitrophenyl)-3-(3,4-dichlorophenyl)thiourea] | – | – | – | – | – | – | – | – | – | – | – | – | – | – | – | – | – | – | – | – | MIC (standard staphylococci): 16 to 32 µg/mL and 32 µg/mL; times stronger / more potent than ciprofloxacin [5]: 4–16 times
3 | O=[N+]([O-])c1cc(NC2=[N+](c3ccc(Cl)c([N+](=O)[O-])c3)[Cu-2]3([S]2)[S]C(Nc2ccc(Cl)c([N+](=O)[O-])c2)=[N+]3c2ccc(Cl)c([N+](=O)[O-])c2)ccc1Cl [Compound 6, Copper (II) complex with 1,3-bis(4-chloro-3-nitrophenyl)thiourea] | – | – | – | – | – | – | – | – | – | – | 64 | – | – | – | – | – | – | – | – | – | times stronger / more potent than ciprofloxacin [5]: 4–16 times
4 | O=[N+]([O-])c1cc([N+]2=C(Nc3ccc(I)cc3)[S][Cu-2]23[S]C(Nc2ccc(I)cc2)=[N+]3c2ccc(Cl)c([N+](=O)[O-])c2)ccc1Cl [Compound 8, Copper (II) complex with 1-(4-iodophenyl)-3-(4-chloro-3-nitrophenyl)thiourea] | 53.7 | 71.1 | 77.6 | 31.5–75.2% | 31.6 | 52.4 | 65.0 | 68.5 | 74.3 | 79.3 | 64 | 52.3 | 84.4 | 93.5 | 42.0 | 81.7 | 74.4 | 39.9 | 78.3 | 88.6 | MIC (standard staphylococci): 4 µg/mL; MIC [11]: 4 to 8 µg/mL; Protein Intensity, % (SODC) ([9]; PC3, 24 h): 33.0%; Protein Intensity, % (SODC) ([9]; SW480, 24 h): 88.2%; Protein Intensity, % (SODC) ([9]; SW620, 24 h): 64.5%; Protein Intensity, % (GSTP1) ([10]; PC3, 24 h): 64.1%; Protein Intensity, % (GSTP1) ([10]; SW480, 24 h): 83.0%; Protein Intensity, % (GSTP1) ([10]; SW620, 24 h): 57.5%
